Reference: patent publication US11642413B2, “Compounds for degrading Tau protein aggregates and uses thereof” (Aprinoia Therapeutics Limited, priority 2019, dated 2023)
Blank lines part the entries; values can stand above or below the molecule they belong to.

Experiments:
[1] = molecular target: heparin-induced aggregated Tau (aTau) (Homo sapiens (Human), UniProt P10636); assay: PBB5 competition assay; assay type: binding; settings: for Bmax: competition assay with PBB5; for IC50: 0.12 μM aTau, 0.1 μM PBB5, 37° C., 1 hour
Protocol: 1 mM IPTG (Sangon Biotech, Cat. No A100487) was used to induce production of tau by bacteria (BL21, Invitrogen, Cat. No C600003) transformed with a full-length 2N4R tau expression plasmid. After 3 hours, cell pellet was resuspended in lysis buffer (100 mM PIPES, 1 mM EGTA, 1 mM MgSO4, pH 6.8) and lysed by sonication followed by centrifugation (15,000 rpm, 15 min, 4° C.). The supernatant was then placed in a boiling water bath for 20 min, followed by centrifugation (15,000 rpm, 15 min, 4° C.). Supernatant was loaded onto a Q-Sepharose® Fast Flow column (GE healthcare, Cat. No 17-0510-01), the flow-through fraction was loaded onto an SP-Sepharose® Fast Flow column (GE healthcare, Cat. No 17-0729-01), and tau protein was eluted with elution buffer (100 mM PIPES, 1 M NaCl, 1 mM EGTA, 1 mM MgSO4, 0.2 M NaCl, pH 6.8). Collected fractions of tau-containing eluates were pooled, concentrated and dialyzed against HEPES buffer (25 mM HEPES, 0.1 mM EDTA, 0.5 mM DTT, 100 mM NaCl, pH 7.2) and stored at −80° C. in small aliquots until use. Protein concentration was determined by UV absorption.
2 μM of tau prepared in 30 mM Tris-HCl, pH 7.5 buffer was incubated in tube with 15 μM heparin (Sigma, Cat. No H3149) at 37° C. for 24 hours.
2 μM of aTau was diluted to 0.12 μM by […] (pH 6.8) and then incubated with 0.1 μM 2-(4-(2-(methylamino)pyridine-5-yl)-1,3-butadiene-1-yl)benzothiazole-6-ol (PBB5) and serially diluted compound (three-fold serial dilution, from 10 to 0.00017 μM) in a 96-well plate (Corning, Cat. No 3573) at 37° C. for 1 hour. Fluorescence intensity (excitation/emission=530/690 nm) of PBB5 was read by microplate spectrometer (EnSpire 2300, PerkinElmer). Percentage of competition was calculated using the following equation: (Max−well of compound alone)/(Max−Min)*100%, where Max=(Tau+PBB5) signals−(buffer+PBB5) signals; and Min=(buffer+PBB5) signals−(buffer+PBB5) signals.
The IC50 value of each compound was calculated with GraphPad Prism software using the “4 Parameter Logistic Model or Sigmoidal Dose-Response Model”: Y=Bottom+(Top−Bottom)/(1+(IC50/X)^HillSlope)

[2] = molecular target: heparin-induced aggregated Tau (aTau), full-length 2N4R tau (Homo sapiens (Human), UniProt P10636); assay: In vitro fluorometric aTau binding assay; settings: 0.04 μM aTau, 37° C., 1 hour, fluorescence intensity
Protocol: 1 mM IPTG (Sangon Biotech, Cat. No A100487) was used to induce production of tau by bacteria (BL21, Invitrogen, Cat. No C600003) transformed with a full-length 2N4R tau expression plasmid. After 3 hours, cell pellet was resuspended in lysis buffer (100 mM PIPES, 1 mM EGTA, 1 mM MgSO4, pH 6.8) and lysed by sonication followed by centrifugation (15,000 rpm, 15 min, 4° C.). The supernatant was then placed in a boiling water bath for 20 min, followed by centrifugation (15,000 rpm, 15 min, 4° C.). […] Protein concentration was determined by UV absorption. […]
2 μM aTau was diluted to 0.04 μM with 30 mM Tris-HCl (pH 6.8), and then incubated with serially diluted compound (three-fold serial dilutions, from 10 to 0.00017 μM) in a 96-well plate (Corning, Cat. No 3573) at 37° C. for 1 hour. Fluorescence intensity (excitation/emission=370/500 nm) of APN-0729 was read by microplate spectrometer (EnSpire 2300, PerkinElmer). Compound Kd values were calculated using the following equation: Y=Bmax*X/(Kd+X), where X is the concentration of compound; Y is the fluorescence signal of (compound+aTau)−(compound+DMSO); and Bmax is the maximum signal.

[3] = In vivo pharmacokinetic study of plasma and brain tissue; settings: mice, 1 mg/kg, intravenous
Protocol: To determine whether the compounds of the present disclosure are capable of crossing the blood brain barrier (BBB), example compound 160313 was administered to mice in a pharmacokinetic study (1 mg/kg, intravenous) of plasma and brain tissue.
Animal Husbandry: Mice were housed at animal room environment with ventilation 15 times/hour, lighting 12 hours/day, temperature 20° C. to 24° C. and humidity 40% to 70%. The study rooms were disinfected and cleaned prior to the start of the study and the operation area was cleaned after each dosing or sampling during the study conduct. All animals had free access to food and water during the study. The animals had access to Certified Rodent Diet and water ad libitum. The nutritional composition and levels of contaminants of the diet and impurities and contaminants of the water were monitored by third organization. The health status of the animals was evaluated in accordance with accepted animal husbandry procedures and deemed suitable for experimental use.
Sample Collection & Processing: Approximately 110 μL of whole blood were collected from all animals via facial or cardiac puncture under anesthesia with Isoflurane into test tubes containing potassium ethylenediaminetetraacetate (K2EDTA) at 0.25, 0.5, 1, 2, 4, 8 and 24 hr post dose. Brian samples were collected at 0.25, 0.5, 1, 2, 4, 8 and 24 hours post dose. A perfusion with pre-cold saline will be conducted via cardiac puncture before brain collection. Blood samples were centrifuged at 2000 g at 4° C. for 5 minutes to obtain plasma samples by transferring the supernatants into new tubes. All plasma and brain samples were stored at approximately −70° C. until analysis.
Bioanalytical Method Development: The concentrations of compound in plasma and brain samples were determined using a liquid chromatography with tandem mass spectrometry (LC-MS/MS) based method.

heparin-induced aggregated Tau (aTau), sequence (P10636 other isoform, or with tags, fused parts or gaps): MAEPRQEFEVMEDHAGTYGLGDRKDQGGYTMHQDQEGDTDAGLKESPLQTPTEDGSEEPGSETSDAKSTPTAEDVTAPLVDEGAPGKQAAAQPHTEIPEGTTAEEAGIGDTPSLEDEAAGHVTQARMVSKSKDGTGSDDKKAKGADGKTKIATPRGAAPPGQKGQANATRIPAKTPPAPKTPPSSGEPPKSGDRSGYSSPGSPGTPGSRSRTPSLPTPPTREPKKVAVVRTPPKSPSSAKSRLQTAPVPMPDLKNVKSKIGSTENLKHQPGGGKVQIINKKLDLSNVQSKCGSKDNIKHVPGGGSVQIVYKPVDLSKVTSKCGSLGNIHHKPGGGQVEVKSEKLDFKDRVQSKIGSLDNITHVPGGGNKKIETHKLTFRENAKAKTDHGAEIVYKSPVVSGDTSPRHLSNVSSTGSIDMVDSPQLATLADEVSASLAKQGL
heparin-induced aggregated Tau (aTau), full-length 2N4R tau, sequence (P10636 other isoform, or with tags, fused parts or gaps): as above

- Bmax [1]: 59%
SMILES: CN(C)c1ccc(-c2ccc(-c3nc4ccc(NCCOCCOCCOCCOCCOCCOc5ccc6c(c5)CN(C5CCC(=O)NC5=O)C6=O)cc4s3)cc2)cn1 (stereo not drawn) [Compound 160273, 3-[6-[2-[2-[2-[2-[2-[2-[[2-[4-[6-(dimethylamino)pyridin-3-yl]phenyl]-1,3-benzothiazol-6-yl]-amino]ethoxy]ethoxy]ethoxy]ethoxy]-ethoxy]ethoxy]-3-oxo-1H-isoindol-2-yl]piperidine-2,6-dione]

- Bmax [1]: 71%
SMILES: CN(C)c1ccc(-c2ccc(-c3nc4ccc(NCCOCCOCCOCCOCCOCCOc5ccc6c(c5)C(=O)N(C5CCC(=O)NC5=O)C6=O)cc4s3)cc2)cn1 (stereo not drawn) [Compound 159985, 2-[2,6-bis(oxo)piperidin-3-yl]-5-[2-[2-[2-[2-[2-[2-[[2-[4-[6-(dimethylamino)-pyridin-3-yl]phenyl]-1,3-benzothiazol-6-yl]amino]ethoxy]ethoxy]ethoxy]ethoxy]ethoxy]-ethoxy]isoindole-1,3-dione]

- Bmax [1]: 96%
SMILES: CN(C)c1ccc2nc(-c3ccc(-c4ccc(NCCOCCOCCOCCOCCOCCOc5ccc6c(c5)C(=O)N(C5CCC(=O)NC5=O)C6=O)nc4)cc3)sc2c1 (stereo not drawn) [Compound 160275, 2-[2,6-bis(oxo)piperidin-3-yl]-5-[2-[2-[2-[2-[2-[2-[[5-[4-[6-(dimethylamino)-1,3-benzothiazol-2-yl]phenyl]pyridin-2-yl]amino]ethoxy]ethoxy]-ethoxy]ethoxy]ethoxy]ethoxy]isoindole-1,3-dione]

- Bmax [1]: 80%
SMILES: CN(C)c1ccc2nc(-c3ccc(-c4ccc(NCCOCCOCCOCCOCCOCCOc5ccc6c(c5)CN(C5CCC(=O)NC5=O)C6=O)nc4)cc3)sc2c1 (stereo not drawn) [Compound 160383, 3-[6-[2-[2-[2-[2-[2-[2-[[5-[4-[6-(dimethylamino)-1,3-benzothiazol-2-yl]-phenyl]pyridin-2-yl]amino]ethoxy]ethoxy]ethoxy]ethoxy]-ethoxy]ethoxy]-3-oxo-1H-isoindol-2-yl]piperidine-2,6-dione]

- Bmax [1]: 64%
- Kp ([3]; mouse, brain/plasma, read-out: brain/plasma ratio): ~0.31
- AUC(0-t) ([3]; mouse, Brain): 117 ng·h/mL
- Cmax ([3]; mouse, Brain): 111 ng/mL
- Tmax ([3]; mouse, Brain): 15 min
- half-life ([3]; mouse, Brain): 61.8 min
- AUC(0-t) ([3]; mouse, Plasma): 379 ng·h/mL
- half-life ([3]; mouse, Plasma): 27.6 min
SMILES: CN(C)c1ccc(-c2ccc(-c3nc4ccc(NCCOCCOc5ccc6c(c5)CN(C5CCC(=O)NC5=O)C6=O)cc4s3)cc2)cn1 (stereo not drawn) [Compound 160313, 3-[6-[2-[2-[[2-[4-[6-(dimethylamino)pyridin-3-yl]phenyl]-1,3-benzothiazol-6-yl]amino]ethoxy]ethoxy]-3-oxo-1H-isoindol-2-yl]piperidine-2,6-dione]
- BBB penetration [3]: able to penetrate BBB in short period of time

The next lines start with the molecule.

SMILES: CN(C)c1ccc2nc(-c3ccc(-c4ccc(NCCOCCN5C(=O)CCC(N6C(=O)c7ccc(O)cc7C6=O)C5=O)nc4)cc3)sc2c1 (stereo not drawn) [Compound 160703]
- IC50 [1]: 1000 nM
- Bmax [1]: =100%
- Kd [2]: 100 nM

SMILES: CN(C)c1ccc(-c2ccc(-c3nc4ccc(NCCOCCOc5ccc6c(c5)C(=O)N(C5CCC(=O)NC5=O)C6=O)cc4s3)cc2)cn1 (stereo not drawn) [Compound 160219, 2-[2,6-bis(oxo)piperidin-3-yl]-5-[2-[2-[[2-[4-[6-(dimethylamino)pyridin-3-yl]phenyl]-1,3-benzothiazol-6-yl]amino]ethoxy]ethoxy]isoindole-1,3-dione]
- Bmax [1]: 69%

SMILES: CN(C)c1ccc(-c2ccc(-c3cn4cc(OCCOCCN5C(=O)CCC(N6C(=O)c7ccc(O)cc7C6=O)C5=O)ccc4n3)cc2)c(F)n1 (stereo not drawn) [Compound 160570]
- IC50 [1]: 2260 nM
- Bmax [1]: =100%
- Kd [2]: 360 nM

SMILES: CN(C)c1ccc(-c2ccc(-c3cn4cc(OCCOCCOCCOCCOCCOCCOc5ccc6c(c5)C(=O)N(C5CCC(=O)NC5=O)C6=O)ccc4n3)cc2)c(F)n1 (stereo not drawn) [Compound 160744, 2-[2,6-bis(oxo)piperidin-3-yl]-5-[2-[2-[2-[2-[2-[2-[2-[4-[6-(dimethyl-amino)-2-fluoro-pyridin-3-yl]phenyl]imidazo[1,2-a]pyridin-6-yl]oxyethoxy]ethoxy]ethoxy]-ethoxy]ethoxy]ethoxy]isoindole-1,3-dione]
- Bmax [1]: 113%
